Patent publication US10987344B2, “Pharmaceutical composition capable of the incorporation of lenalidomide in various crystalline modifications” (GRINDEKS, A JOINT STOCK COMPANY, priority 2015, dated 2021)
≈ marks a conversion by molar mass, not a printed value. Where a name gives a salt, the structure may show the parent alone. Read-outs that look alike come from different tables or passages of the source.

Key:
[1] = Particle size distribution (d90), Malvern Mastersizer 2000, wet dispersion in cyclohexane; format: physicochemical
Procedure: The D90 value is defined such that 90% by volume of the particles have a particle size smaller than the d90 value and 10% by volume of the particles have a greater particle size greater than the d90 value.
Sample solution. Place 50 mg of well mixed sample to a 100 mL beaker. Add 25 mL of cyclohexane. Using Pasteur pipette transfer small aliquots of sample slurry to the measuring cuvette until the concentration reading is good. The beaker is swirled efficiently before each pipetting.
Measurement according to the operating instructions. Perform three successive determinations, from which calculate the mean value.

[2] = Solubility of Lenalidomide modifications: saturated solutions in three media, HPLC analysis; format: physicochemical
Procedure: As the case for their visual appearance, also the solubility of those different Lenalidomide modifications is quite different.
• Solubilities are determined by preparing saturated solutions in the three media, followed by HPLC-analysis.

[3] = as prepared in reference example 1 (not milled)
[4] = 0.1M hydrochloric acid, pH 1, simulated gastric fluid, thermodynamic from solid, 0.1M HCl, pH 1.0, read-out: Solubility
[5] = acetate buffer, pH 4.5, aqueous buffer, thermodynamic from solid, Acetate buffer, pH 4.5, read-out: Solubility
[6] = phosphate buffer, pH 6.8, aqueous buffer, thermodynamic from solid, Phosphate buffer, pH 6.8, read-out: Solubility

Nc1cccc2c1CN(C1CCC(=O)NC1=O)C2=O (racemic) [Base form A, (RS)-3-(4-Amino-1-oxo 1,3-dihydro-2H-isoindol-2-yl)piperidine-2,6-dione]
PSD, d90 [1, 3]: 219 μm | PSD, d90 ([1]; example 2, after milling 15 min at 20 Hz): 35 μm | Solubility ([2]; 0.1M HCl, pH 1.0): 4760 µg/mL (≈ 18400 µM) | Solubility ([2]; Acetate buffer, pH 4.5): 430 µg/mL (≈ 1660 µM) | Solubility ([2]; Phosphate buffer, pH 6.8): 390 µg/mL (≈ 1500 µM)

Nc1cccc2c1CN(C1CCC(=O)NC1=O)C2=O (racemic) [Base form B, (RS)-3-(4-Amino-1-oxo 1,3-dihydro-2H-isoindol-2-yl)piperidine-2,6-dione]
Solubility [2, 4]: 2740 µg/mL (≈ 10600 µM) | Solubility [2, 5]: 330 µg/mL (≈ 1270 µM) | Solubility [2, 6]: 330 µg/mL (≈ 1270 µM)

Nc1cccc2c1CN(C1CCC(=O)NC1=O)C2=O (stereo not shown) [DMSO solvate]
Solubility [2, 4]: 6330 µg/mL | Solubility [2, 5]: 380 µg/mL | Solubility [2, 6]: 350 µg/mL

Nc1cccc2c1CN(C1CCC(=O)NC1=O)C2=O (stereo not shown) [HCl salt]
PSD, d90 [1, 3]: 434 μm | PSD, d90 ([1]; example 2, after milling 15 min at 20 Hz, listed as Hydrochloride salt): 43 μm | Solubility ([2]; 0.1M HCl, pH 1.0): 9000 µg/mL | Solubility relative to base form B ([2]; 0.1M hydrochloric acid at pH1): more than 3 times | Solubility ([2]; Acetate buffer, pH 4.5): 370 µg/mL | Solubility ([2]; Phosphate buffer, pH 6.8): 330 µg/mL

Nc1cccc2c1CN(C1CCC(=O)NC1=O)C2=O (stereo not shown) [NH4Cl cocrystal]
PSD, d90 [1, 3]: 383 μm | PSD, d90 ([1]; example 2, after milling 15 min at 20 Hz, listed as Ammonium chloride cocrystal): 31 μm | Solubility ([2]; 0.1M HCl, pH 1.0): 7760 µg/mL | Solubility ([2]; Acetate buffer, pH 4.5): 420 µg/mL | Solubility ([2]; Phosphate buffer, pH 6.8): 360 µg/mL
